The values below come from ChEMBL document CHEMBL1649211, “Diversity of beta-lactamases produced by ceftazidime-resistant Pseudomonas aeruginosa isolates causing bloodstream infections in Brazil” (2009).

What all share (format): functional
Experiment [1] concerns Pseudomonas aeruginosa. Description: Antimicrobial activity against beta-lactamase-producing Pseudomonas aeruginosa clinical isolate assessed as susceptible isolates by agar dilution method.
The test system of experiment [2] is Pseudomonas aeruginosa. Description: Antimicrobial activity against ESBL- and MBL-producing and ceftazidime-resistant Pseudomonas aeruginosa isolated from patients with bloodstream infection assessed as resistant isolates by agar dilution method.
For experiment [3], the system named is Pseudomonas aeruginosa. Description: Antimicrobial activity against Pseudomonas aeruginosa clinical isolate overexpressing AmpC gene assessed as resistant isolates by agar dilution method. (In general: In agar dilution the substance is mixed into plates at graded concentrations.)
Experiment [4] deals with Pseudomonas aeruginosa. Description: Antimicrobial activity against ESBL- and MBL-producing Pseudomonas aeruginosa isolated from patients with bloodstream infection assessed as resistant isolates by agar dilution method.
In experiment [5] the test system is Pseudomonas aeruginosa. Kind of experiment: Antimicrobial activity against beta-lactamase-producing Pseudomonas aeruginosa clinical isolate assessed as susceptible isolate by agar dilution method in presence of beta-lactamase inhibitor Tazobactam.
Experiment [6] has as its system Pseudomonas aeruginosa. Description: Antimicrobial activity against beta-lactamase-producing Pseudomonas aeruginosa clinical isolate by agar dilution method.

`NCC[C@H](O)C(=O)N[C@@H]1C[C@H](N)[C@@H](O[C@H]2O[C@H](CN)[C@@H](O)[C@H](O)[C@H]2O)[C@H](O)[C@H]1O[C@H]1O[C@H](CO)[C@@H](O)[C@H](N)[C@H]1O` [AMIKACIN]: the Activity in the experiment with Pseudomonas aeruginosa [1] came to 18.6%.

As to `C[C@@H](O)[C@H]1C(=O)N2C(C(=O)O)=C(SCCNC=N)C[C@H]12` [IMIPENEM ANHYDROUS], the Activity in the experiment with Pseudomonas aeruginosa [1] is 18.6%; in the experiment with Pseudomonas aeruginosa [2] it was 82%.

On to `CC(C)(O/N=C(\C(=O)N[C@@H]1C(=O)N2C(C(=O)[O-])=C(C[n+]3ccccc3)CS[C@H]12)c1csc(N)n1)C(=O)O` [CEFTAZIDIME], for which the Activity in the experiment with Pseudomonas aeruginosa [3] was determined as 9.3%; in the experiment on Pseudomonas aeruginosa [4], 28%.

The MIC is the least concentration at which growth counts as inhibited. Turning to `CCN1CCN(C(=O)N[C@@H](C(=O)N[C@@H]2C(=O)N3[C@@H]2SC(C)(C)[C@@H]3C(=O)O)c2ccccc2)C(=O)C1=O` [PIPERACILLIN], the Activity was found to be 34.8% in the experiment with Pseudomonas aeruginosa [1] and 39.5% in the experiment on Pseudomonas aeruginosa [5]. In the experiment with Pseudomonas aeruginosa [6], this compound had an MIC of no more than 16 µg/mL.

As for `C[C@@H](O)[C@H]1C(=O)N2C(C(=O)O)=C(S[C@@H]3CN[C@H](C(=O)N(C)C)C3)[C@H](C)[C@H]12` [MEROPENEM], in the experiment with Pseudomonas aeruginosa [2], the Activity is 95%.

With COLISTIN, the Activity in the experiment with Pseudomonas aeruginosa [1] was found to be 100%.
